Test results reported in ChEMBL document CHEMBL5338712, “Influence of chain length on the anticancer activity of the antimicrobial peptide CAMEL with fatty acid modification” (Eur J Med Chem, 2022).
Values after ≈ are worked out from the molar mass of the structure shown. Active and inactive are the calls of the source. No cut-off for these calls is given here. Where a SMILES comes first, the peptide text is derived from it. The star is where a group is joined. Palmitoyl = CCCCCCCCCCCCCCCC(=O)*; Lauroyl = CCCCCCCCCCCC(=O)*; Decanoyl = CCCCCCCCCC(=O)*; Octanoyl = CCCCCCCC(=O)*; Cbz = O=C(OCc1ccccc1)*; Butyryl = CCCC(=O)*; CH2F = FC*

Legend:
B16-F10 [1] = assay: Cytotoxicity against mouse B16-F10 cells assessed as reduction in cell viability measured after 1 hrs by MTT assay; type: functional, cell-based; settings: dose 1.25-20 µM
B16-F10 [2] = assay: Cytotoxicity against mouse B16-F10 cells assessed as reduction in cell viability at 1.25 to 20 uM measured after 24 hrs by MTT assay; type: functional, cell-based; settings: dose 1.25-20 µM
Escherichia coli = assay: Antibacterial activity against Escherichia coli ATCC 25922 assessed as reduction in bacterial growth measured for 18 hrs by serial dilution method; type: functional
Staphylococcus aureus = assay: Antibacterial activity against Staphylococcus aureus ATCC […] assessed as reduction in bacterial growth measured for 18 hrs by serial dilution method; type: functional
[3] = Self-assembly behavior of compound in saline solution assessed as critical micelle concentration by spectrophotometer analysis; type: physicochemical; settings: buffer
trypsin = trypsin (Homo sapiens, UniProt P07477+P07478+P35030); assay: Stability of compound assessed as trypsin (unknown origin)-mediated compound degradation measured upto 6 hrs by RP-HPLC analysis; type: ADME, protein assay; settings: trypsin (enzyme solution), read-out: Drug degradation
B16-F10 [4] = assay: Membrano-lytic activity in mouse B16-F10 cell membrane measured after 1 hr by LDH leakage assay; type: cell-based; settings: dose 1.25-20 µM
B16-F10 [5] = assay: Membrano-lytic activity in mouse B16-F10 cell membrane at 1.25 to 20 uM measured after 4 hr by LDH leakage assay; type: cell-based; settings: dose 1.25-20 µM
B16-F10 [6] = assay: Membrano-lytic activity in mouse B16-F10 cell membrane at 20 uM measured at 1 hr by LDH leakage assay; type: cell-based
B16-F10 [7] = assay: Induction of necrotic cell death in mouse B16-F10 at 10 uM measured after 1 to 24 hrs; type: functional, cell-based; settings: time 1-24 hrs
B16-F10 [8] = assay: Induction of morphological changes in mouse B16-F10 cells assessed as cell rounding at 20 uM incubated for 30 mins by microscopic analysis; type: functional, cell-based
B16-F10 [9] = assay: Induction of morphological changes in mouse B16-F10 cells assessed as cell swelling at 20 uM incubated for 30 mins by microscopic analysis; type: functional, cell-based
B16-F10 [10] = assay: Induction of morphological changes in mouse B16-F10 cells assessed as cell bursting at 20 uM incubated for 30 mins by microscopic analysis; type: functional, cell-based
B16-F10 [11] = assay: Induction of cell membrane disruption in mouse B16-F10 cells at 20 uM measured for 30 mins by PI staining based microplate reader assay
B16-F10 [12] = assay: Induction of cell membrane disruption in mouse B16-F10 cells at 20 uM by PI staining based microplate reader assay; settings: time 30.0 min, TDE = time-dependent effect
B16-F10 [13] = assay: Induction of mitochondrial membrane potential loss in mouse B16-F10 cells assessed as decrease in fluorescence intensity at 10 uM measured at 0.5 to 4 hrs by flow cytometry analysis; type: functional, cell-based; settings: time 0.5-4 hrs
B16-F10 [14] = assay: Induction of mitochondrial membrane potential loss in mouse B16-F10 cells at 10 uM by flow cytometry analysis; type: functional, cell-based; settings: time 0.5-4 hrs, TDE = time-dependent effect
B16-F10 [15] = assay: Induction of ROS production in mouse B16-F10 cells at 10 uM measured for 0.5 to 4 hrs by MitoSOX red dye based microplate reader analysis; type: functional, cell-based; settings: time 0.5-4 hrs
B16-F10 [16] = assay: Induction of ROS production in mouse B16-F10 cells at 10 uM measured for 0.5 to 4 hrs by DCFH-DA dye based microplate reader analysis; type: functional, cell-based; settings: time 0.5-4 hrs
B16-F10 [17] = assay: Antiproliferative activity against mouse B16-F10 cells assessed as inhibition of cell viability by measuring ATP level at 10 uM measured for 4 to 24 hrs; type: functional, cell-based; settings: time 4-24 hrs
B16-F10 [18] = assay: Induction of apoptosis in mouse B16-F10 cells assessed as activation of caspase-3 incubated for 24 hrs by microplate reader analysis; type: functional, cell-based
B16-F10 [19] = assay: Cytotoxicity against mouse B16-F10 cells assessed as induction of cell death measured for 4 to 24 hrs by MTT assay; type: functional, cell-based; settings: time 4-24 hrs
B16-F10 [20] = assay: Induction of necroptosis in mouse B16-F10 cells assessed as increase in ROS level; type: functional, cell-based
B16-F10 [21] = assay: Induction of apoptosis in mouse B16-F10 cells assessed as decrease in ATP level; type: functional, cell-based
B16-F10 [22] = assay: Induction of necroptosis in mouse B16-F10 cells assessed as cell death at 5 to 20 uM measured for 4 to 24 hrs in presence of Nec-1; type: functional, cell-based; settings: dose 5-20 µM, time 4-24 hrs
B16-F10 [23] = assay: Induction of cell cycle arrest in mouse B16-F10 cells assessed as accumulation at G0/G1 phase at 10 uM and measured after 24 hrs PI staining based by flow cytometry; type: functional
B16-F10 [24] = assay: Antitumor activity against mouse B16-F10 cells implanted in intratumorally dosed C57BL/6 mouse assessed as reduction in tumor volume administered for 3 days by vernier caliper method; type: functional, organism-based; settings: time 3.0 day
[25] = Toxicity in C57BL/6 […] mouse implanted with mouse B16-F10 cells assessed as animal death administered intratumorally; type: cell-based; settings: in vivo, other, route it(Intratumoral)
B16-F10 [26] = assay: Membrano-lytic activity in mouse B16-F10 cell membrane at 1.25 to 20 uM measured after 1 hr by LDH leakage assay; type: cell-based; settings: dose 1.25-20 µM
B16-F10 [27] = assay: Cytotoxicity against mouse B16-F10 cells assessed as reduction in cell viability at 1.25 to 20 uM by MTT assay; type: functional, cell-based; settings: dose 1.25-20 µM, time 1-72 hrs, TDE = time-dependent effect
B16-F10 [28] = assay: Cytotoxicity against mouse B16-F10 cells assessed as reduction in cell viability at 1.25 to 20 uM measured after 72 hrs by MTT assay; type: functional, cell-based; settings: dose 1.25-20 µM
B16-F10 [29] = assay: Membrano-lytic activity in mouse B16-F10 cell membrane at 20 uM by LDH leakage assay; type: cell-based; settings: time 0.5-4 hrs, TDE = time-dependent effect
B16-F10 [30] = assay: Disruption of membrane integrity in mouse B16-F10 cells at 10 uM measured at 4 to 24 hrs by propidium iodide staining based laser scanning microscopic analysis; type: cell-based; settings: time 4-24 hrs

Compound	Activity (B16-F10 [1])	Activity (B16-F10 [2])	MIC (Escherichia coli)	MIC (Staphylococcus aureus)	CMC [3]	metabolised at 6 h (trypsin)	Activity (B16-F10 [4])	Activity (B16-F10 [7])	Activity (B16-F10 [8])	Activity (B16-F10 [9])	Activity (B16-F10 [10])	Activity (B16-F10 [11])	Activity (B16-F10 [13])	Activity (B16-F10 [14])	Activity (B16-F10 [15])	Activity (B16-F10 [16])	Activity (B16-F10 [17])	Activity (B16-F10 [18])	Activity (B16-F10 [19])	Activity (B16-F10 [26])	further results
CCCCCCCCCCCC(=O)N[C@@H](CCCCN)C(=O)N[C@@H](Cc1c[nH]c2ccccc12)C(=O)N[C@@H](CCCCN)C(=O)N[C@@H](CC(C)C)C(=O)N[C@@H](Cc1ccccc1)C(=O)N[C@@H](CCCCN)C(=O)N[C@@H](CCCCN)C(=O)N[C@H](C(=O)NCC(=O)N[C@@H](C)C(=O)N[C@H](C(=O)N[C@@H](CC(C)C)C(=O)N[C@@H](CCCCN)C(=O)N[C@H](C(=O)N[C@@H](CC(C)C)C(N)=O)C(C)C)C(C)C)[C@@H](C)CC (Lauroyl-KWKLFKKIGAVLKVL-NH2)	Dose-Dependent Effect	Active	8 µM (≈ 15.6 µg/mL)	8 µM (≈ 15.6 µg/mL)	7.16 µM	18.9%	Dose-Dependent Effect	Active	Active	Active	Active	Active	Active	Tde	Active	Active	Active	inactive	inactive	–	Activity (B16-F10 [5]): Active; Activity (B16-F10 [6]): Active; Activity (B16-F10 [12]): Tde; Activity (B16-F10 [20]): Active; Activity (B16-F10 [21]): inactive; Activity (B16-F10 [22]): Active; Activity (B16-F10 [23]): inactive; Activity (B16-F10 [24]): Active; Activity [25]: Non-Toxic
CCCC(=O)N[C@@H](CCCCN)C(=O)N[C@@H](Cc1c[nH]c2ccccc12)C(=O)N[C@@H](CCCCN)C(=O)N[C@@H](CC(C)C)C(=O)N[C@@H](Cc1ccccc1)C(=O)N[C@@H](CCCCN)C(=O)N[C@@H](CCCCN)C(=O)N[C@H](C(=O)NCC(=O)N[C@@H](C)C(=O)N[C@H](C(=O)N[C@@H](CC(C)C)C(=O)N[C@@H](CCCCN)C(=O)N[C@H](C(=O)N[C@@H](CC(C)C)C(N)=O)C(C)C)C(C)C)[C@@H](C)CC (Butyryl-KWKLFKKIGAVLKVL-NH2)	Dose-Dependent Effect	Active	4 µM (≈ 7.36 µg/mL)	2 µM (≈ 3.68 µg/mL)	–	100%	Dose-Dependent Effect	–	–	–	–	–	–	–	–	–	–	–	–	Active	–
COC(=O)C[C@H](NC(=O)[C@H](C)NC(=O)[C@@H](NC(=O)OCc1ccccc1)C(C)C)C(=O)CF (Cbz-Val-Ala-Asp(OMe)-CH2F)	–	–	–	–	–	–	–	–	–	–	–	–	–	–	–	–	–	–	Active	–	–
CCCCCCCC(=O)N[C@@H](CCCCN)C(=O)N[C@@H](Cc1c[nH]c2ccccc12)C(=O)N[C@@H](CCCCN)C(=O)N[C@@H](CC(C)C)C(=O)N[C@@H](Cc1ccccc1)C(=O)N[C@@H](CCCCN)C(=O)N[C@@H](CCCCN)C(=O)N[C@H](C(=O)NCC(=O)N[C@@H](C)C(=O)N[C@H](C(=O)N[C@@H](CC(C)C)C(=O)N[C@@H](CCCCN)C(=O)N[C@H](C(=O)N[C@@H](CC(C)C)C(N)=O)C(C)C)C(C)C)[C@@H](C)CC (Octanoyl-KWKLFKKIGAVLKVL-NH2)	Dose-Dependent Effect	Active	8 µM (≈ 15.2 µg/mL)	4 µM (≈ 7.59 µg/mL)	–	70.2%	Dose-Dependent Effect	–	–	–	–	–	–	–	–	–	–	–	–	Active	–
CCCCCCCCCC(=O)N[C@@H](CCCCN)C(=O)N[C@@H](Cc1c[nH]c2ccccc12)C(=O)N[C@@H](CCCCN)C(=O)N[C@@H](CC(C)C)C(=O)N[C@@H](Cc1ccccc1)C(=O)N[C@@H](CCCCN)C(=O)N[C@@H](CCCCN)C(=O)N[C@H](C(=O)NCC(=O)N[C@@H](C)C(=O)N[C@H](C(=O)N[C@@H](CC(C)C)C(=O)N[C@@H](CCCCN)C(=O)N[C@H](C(=O)N[C@@H](CC(C)C)C(N)=O)C(C)C)C(C)C)[C@@H](C)CC (Decanoyl-KWKLFKKIGAVLKVL-NH2)	–	–	–	–	32.61 µM	–	–	–	–	–	–	–	–	–	–	–	–	–	–	–	–
CCCCCCCCCCCCCCCC(=O)N[C@@H](CCCCN)C(=O)N[C@@H](Cc1c[nH]c2ccccc12)C(=O)N[C@@H](CCCCN)C(=O)N[C@@H](CC(C)C)C(=O)N[C@@H](Cc1ccccc1)C(=O)N[C@@H](CCCCN)C(=O)N[C@@H](CCCCN)C(=O)N[C@H](C(=O)NCC(=O)N[C@@H](C)C(=O)N[C@H](C(=O)N[C@@H](CC(C)C)C(=O)N[C@@H](CCCCN)C(=O)N[C@H](C(=O)N[C@@H](CC(C)C)C(N)=O)C(C)C)C(C)C)[C@@H](C)CC (Palmitoyl-KWKLFKKIGAVLKVL-NH2)	Dose-Dependent Effect	Active	> 128 µM	> 128 µM	4.95 µM	8.7%	Dose-Dependent Effect	Active	Active	Active	Active	Active	Active	Tde	Active	Active	Active	inactive	inactive	Active	Activity (B16-F10 [27]): Tde; Activity (B16-F10 [28]): Active; Activity (B16-F10 [29]): Tde; Activity (B16-F10 [30]): Active; Activity (B16-F10 [20]): Active; Activity (B16-F10 [21]): inactive; Activity (B16-F10 [22]): Active; Activity (B16-F10 [23]): inactive; Activity (B16-F10 [24]): Active; Activity [25]: Non-Toxic
